# The source made the active and inactive calls. The rule behind the calls is not given here.
# Assays:
# [1] = tested on: Echinochloa oryzicola; experiment: Herbicidal activity against Echinochloa oryzicola grown in water-drained pot under greenhouse condition assessed as growth inhibition at 250 g /ha measured after 33 days; assay type: functional, organism-based
# [2] = tested on: Echinochloa oryzicola; experiment: Herbicidal activity against Echinochloa oryzicola grown in water-drained pot under greenhouse condition assessed as growth inhibition at 250 g /ha measured after 27 days; assay type: functional, organism-based
# [3] = tested on: Echinochloa oryzicola; experiment: Herbicidal activity against Echinochloa oryzicola grown in water-drained pot under greenhouse condition assessed as growth inhibition at 250 g /ha measured after 20 days; assay type: functional, organism-based
# [4] = tested on: Echinochloa oryzicola; experiment: Herbicidal activity against Echinochloa oryzicola grown in water-drained pot under greenhouse condition assessed as growth inhibition at 250 g /ha measured after 13 days; assay type: functional, organism-based
# [5] = tested on: Echinochloa oryzicola; experiment: Herbicidal activity against Echinochloa oryzicola grown in water-drained pot under greenhouse condition assessed as growth inhibition at 250 g /ha measured after 6 days; assay type: functional, organism-based
# [6] = tested on: Echinochloa oryzicola; experiment: Herbicidal activity against Echinochloa oryzicola grown in water-drained pot under greenhouse condition assessed as growth inhibition at 1000 g /ha measured after 42 days; assay type: functional, organism-based
# [7] = tested on: Echinochloa oryzicola; experiment: Herbicidal activity against Echinochloa oryzicola grown in water-drained pot under greenhouse condition assessed as growth inhibition at 1000 g /ha measured after 33 days; assay type: functional, organism-based
# [8] = tested on: Echinochloa oryzicola; experiment: Herbicidal activity against Echinochloa oryzicola grown in water-drained pot under greenhouse condition assessed as growth inhibition at 1000 g /ha measured after 27 days; assay type: functional, organism-based
# [9] = tested on: Echinochloa oryzicola; experiment: Herbicidal activity against Echinochloa oryzicola grown in water-drained pot under greenhouse condition assessed as growth inhibition at 1000 g /ha measured after 13 days; assay type: functional, organism-based
# [10] = tested on: Echinochloa oryzicola; experiment: Herbicidal activity against Echinochloa oryzicola grown in water-drained pot under greenhouse condition assessed as growth inhibition at 1000 g /ha measured after 20 days; assay type: functional, organism-based
# [11] = tested on: Echinochloa oryzicola; experiment: Herbicidal activity against Echinochloa oryzicola grown in water-drained pot under greenhouse condition assessed as growth inhibition at 1000 g /ha measured after 6 days; assay type: functional, organism-based
# [12] = tested on: Echinochloa oryzicola; experiment: Herbicidal activity against Echinochloa oryzicola grown in water-drained pot under greenhouse condition assessed as growth inhibition at 250 g /ha measured after 42 days; assay type: functional, organism-based
# [13] = tested on: Echinochloa oryzicola; experiment: Herbicidal activity against Echinochloa oryzicola grown in water-drained pot under greenhouse condition assessed as time duration of residual effect at 1000 g /ha; assay type: functional
# [14] = tested on: Echinochloa oryzicola; experiment: Herbicidal activity against Echinochloa oryzicola grown in water-drained pot under greenhouse condition assessed as time duration of residual effect at 250 g /ha; assay type: functional
# [15] = tested on: Echinochloa oryzicola; experiment: Herbicidal activity against Echinochloa oryzicola under greenhouse condition assessed as time duration of residual effect at 250 g /ha; assay type: functional
# [16] = tested on: Echinochloa oryzicola; experiment: Herbicidal activity against Echinochloa oryzicola under greenhouse condition assessed as time duration of residual effect at 1000 g /ha; assay type: functional
# [17] = tested on: Echinochloa oryzicola; experiment: Herbicidal activity against Echinochloa oryzicola under greenhouse condition assessed as growth inhibition at 1000 g /ha measured after 42 days; assay type: functional, organism-based
# [18] = tested on: Echinochloa oryzicola; experiment: Herbicidal activity against Echinochloa oryzicola under greenhouse condition assessed as growth inhibition at 1000 g /ha measured after 33 days; assay type: functional, organism-based
# [19] = tested on: Echinochloa oryzicola; experiment: Herbicidal activity against Echinochloa oryzicola under greenhouse condition assessed as growth inhibition at 1000 g /ha measured after 27 days; assay type: functional, organism-based
# [20] = tested on: Echinochloa oryzicola; experiment: Herbicidal activity against Echinochloa oryzicola under greenhouse condition assessed as growth inhibition at 1000 g /ha measured after 20 days; assay type: functional, organism-based
# [21] = tested on: Echinochloa oryzicola; experiment: Herbicidal activity against Echinochloa oryzicola under greenhouse condition assessed as growth inhibition at 1000 g /ha measured after 13 days; assay type: functional, organism-based
# [22] = tested on: Echinochloa oryzicola; experiment: Herbicidal activity against Echinochloa oryzicola under greenhouse condition assessed as growth inhibition at 250 g /ha measured after 42 days; assay type: functional, organism-based
# [23] = tested on: Echinochloa oryzicola; experiment: Herbicidal activity against Echinochloa oryzicola under greenhouse condition assessed as growth inhibition at 250 g /ha measured after 27 days; assay type: functional, organism-based
# [24] = tested on: Echinochloa oryzicola; experiment: Herbicidal activity against Echinochloa oryzicola under greenhouse condition assessed as growth inhibition at 250 g /ha measured after 20 days; assay type: functional, organism-based
# [25] = tested on: Echinochloa oryzicola; experiment: Herbicidal activity against Echinochloa oryzicola under greenhouse condition assessed as growth inhibition at 250 g /ha measured after 13 days; assay type: functional, organism-based
# [26] = tested on: Echinochloa oryzicola; experiment: Herbicidal activity against Echinochloa oryzicola under greenhouse condition assessed as growth inhibition at 250 g /ha measured after 6 days; assay type: functional, organism-based
# [27] = tested on: Echinochloa oryzicola; experiment: Herbicidal activity against Echinochloa oryzicola under greenhouse condition assessed as growth inhibition at 1000 g /ha measured after 6 days; assay type: functional, organism-based
# [28] = tested on: Echinochloa oryzicola; experiment: Herbicidal activity against Echinochloa oryzicola under greenhouse condition assessed as growth inhibition at 250 g /ha measured after 33 days; assay type: functional, organism-based
smiles,measurement,setting,value
CN(C(=O)COc1nc2ccccc2s1)c1ccccc1 [MEFENACET],growth inhibition (GI),[1],inactive
same,growth inhibition (GI),[2],inactive
same,growth inhibition (GI),[3],inactive
same,growth inhibition (GI),[4],Active
same,growth inhibition (GI),[5],Active
same,growth inhibition (GI),[6],Active
same,growth inhibition (GI),[7],Active
same,growth inhibition (GI),[8],Active
same,growth inhibition (GI),[9],Active
same,growth inhibition (GI),[10],Active
same,growth inhibition (GI),[11],Active
same,growth inhibition (GI),[12],inactive
same,Time,[13],33 days
same,Time,[14],13 days
same,Time,[15],13 days
same,Time,[16],33 days
same,growth inhibition (GI),[17],Active
same,growth inhibition (GI),[18],Active
same,growth inhibition (GI),[19],Active
same,growth inhibition (GI),[20],Active
same,growth inhibition (GI),[21],Active
same,growth inhibition (GI),[22],inactive
same,growth inhibition (GI),[23],inactive
same,growth inhibition (GI),[24],Active
same,growth inhibition (GI),[25],Active
same,growth inhibition (GI),[26],Active
same,growth inhibition (GI),[27],Active
same,growth inhibition (GI),[28],inactive
